Results from patent publication US9090593B2, “Bicyclic compounds as Pim inhibitors” (AMGEN INC., priority 2010, dated 2015).
Like-named read-outs stand apart in the source and are kept apart here.

Legend:
[1] = biological target: T1, full length recombinant Pim-1 protein (Homo sapiens, UniProt P11309); assay: Pim-1 enzyme assay (HTRF, phosphorylation of biotinylated-BAD (S112) peptide); format: biochemical; conditions: enzyme assay, Pim-1; read-out: Pim_1_IC50
T1 construct: by full length recombinant Pim-1, Pim-2, or Pim-3 protein; hexahistidine tag followed by a thrombin cleavage site (N); made in house; host or cells: Sf9 (baculovirus) or E. coli (pET28)
T1 sequence (P11309 whole entry): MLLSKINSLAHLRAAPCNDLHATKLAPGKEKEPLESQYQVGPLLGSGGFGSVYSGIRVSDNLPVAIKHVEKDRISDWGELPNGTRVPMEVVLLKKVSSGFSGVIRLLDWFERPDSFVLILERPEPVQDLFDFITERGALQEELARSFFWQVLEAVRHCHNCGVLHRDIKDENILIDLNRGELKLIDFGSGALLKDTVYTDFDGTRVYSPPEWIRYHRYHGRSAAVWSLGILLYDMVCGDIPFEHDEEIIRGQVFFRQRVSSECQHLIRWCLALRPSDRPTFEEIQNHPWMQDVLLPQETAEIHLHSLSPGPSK
How it was run: (§1)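 Each full-length human Pim enzyme phosphorylates a biotinylated BAD (S112) peptide, and the product is sensed by Eu anti-phospho-BAD antibody with streptavidin-APC after quenching with 3 mM EDTA. Conditions: 60 mM Hepes pH 7.0, 0.05% BSA, 2 mM DTT.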

[2] = biological target: T2, full length recombinant Pim-2 protein (Homo sapiens, UniProt Q9P1W9); assay: Pim-2 enzyme assay (HTRF, phosphorylation of biotinylated-BAD (S112) peptide); format: biochemical; conditions: enzyme assay, Pim-2; read-out: Pim2_IC50
T2 construct: by full length recombinant Pim-1, Pim-2, or Pim-3 protein; hexahistidine tag followed by a thrombin cleavage site (N); made in house; host or cells: Sf9 (baculovirus) or E. coli (pET28)
T2 sequence (Q9P1W9 whole entry): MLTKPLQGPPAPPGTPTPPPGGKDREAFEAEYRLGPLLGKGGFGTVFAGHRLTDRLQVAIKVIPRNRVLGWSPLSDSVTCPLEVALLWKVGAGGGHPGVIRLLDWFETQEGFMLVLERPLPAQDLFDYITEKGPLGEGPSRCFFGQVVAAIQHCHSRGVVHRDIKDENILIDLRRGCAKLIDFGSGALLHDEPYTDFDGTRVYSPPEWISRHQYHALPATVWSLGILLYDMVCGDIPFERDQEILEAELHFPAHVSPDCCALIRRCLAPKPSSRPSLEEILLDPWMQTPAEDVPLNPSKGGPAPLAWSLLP
How it was run: as §1

[3] = biological target: T3, full length recombinant Pim-3 protein (Homo sapiens, UniProt Q86V86); assay: Pim-3 enzyme assay (HTRF, phosphorylation of biotinylated-BAD (S112) peptide); format: biochemical; conditions: read-out: Pim3 IC50
T3 construct: by full length recombinant Pim-1, Pim-2, or Pim-3 protein; purchased Millipore (UK)
How it was run: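 HTRF read-out, streptavidin-APC plus Eu-labelled anti-phospho-BAD (S112) antibody, measures BAD peptide phosphorylation by full-length recombinant Pim-3. Buffer: 60 mM Hepes pH 7.0, 2 mM DTT, 0.05% BSA; EDTA (3 mM) stop. Percent of control per well, IC50 by 4-parameter logistic fit.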

[4] = biological target: T4, Pim-1 stably transfected into the U2OS human osteogenic sarcoma line (Homo sapiens, UniProt P11309); assay: Pim cell assay, phospho-BAD normalized against total BAD, U2OS stably transfected with Pim-1; format: cell-based; conditions: read-out: Pim1_Cell_IC50
T4 construct: expressed in transfected cells; host or cells: U2OS human osteogenic sarcoma line
T4 sequence (P11309 whole entry): as the sequence (P11309 whole entry) above
How it was run: (§2)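 Read-out is phospho-BAD relative to total BAD, by MSD electrochemiluminescence on lysates, expressed as % phosphoprotein = (2×phospho)/(phospho+total)×100. Engineered U2OS lines carrying stably transfected Pim-1 or Pim-2 received 10-point compound dilutions at 0.3% final DMSO after overnight culture at 37 °C; DMSO-only wells served as high control.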

[5] = biological target: T5, Pim-2 stably transfected into the U2OS human osteogenic sarcoma line (Homo sapiens, UniProt Q9P1W9); assay: Pim cell assay, phospho-BAD normalized against total BAD, U2OS stably transfected with Pim-2; format: cell-based; conditions: read-out: Pim2_Cell_IC50; also: high dose 31.6 µM
T5 construct: expressed in transfected cells; host or cells: U2OS human osteogenic sarcoma line
T5 sequence (Q9P1W9 whole entry): as the sequence (Q9P1W9 whole entry) above
How it was run: as §2

[6] = U2OS cells stably transfected with Pim-1, phospho-BAD, high dose […]
[7] = U2OS cells stably transfected with Pim-2, phospho-BAD, high dose […]

Row | IC50 [1] [µM] | IC50 [2] [µM] | IC50 [3] [µM] | IC50 [4, 6] [µM] | IC50 [5, 7] [µM] | IC50 [4] [µM] | IC50 [5] [µM] | SMILES
1 | 0.031 | 0.023 | 0.011 | 0.788 | 8.73 | – | – | NC1CCN(c2cncc(-c3n[nH]c4ccc(Br)cc34)n2)CC1 [Example 1, 1-(6-(5-bromo-1H-indazol-3-yl)pyrazin-2-yl)piperidin-4-amine]
2 | 0.008 | 0.013 | 0.009 | 3.68 | 7.39 | – | – | NC1CCN(c2cncc(-c3n[nH]c4ccc(-c5cc(C(=O)NC6CC6)ccc5F)cc34)n2)CC1 [Example 3, 3-(3-(6-(4-aminopiperidin-1-yl)pyrazin-2-yl)-1H-indazol-5-yl)-N-cyclopropyl-4-fluorobenzamide]
3 | 0.002 | 0.035 | 0.004 | 0.234 | > 31.6 | – | – | COc1cccc(-c2ccc3[nH]nc(-c4cncc(N5CCC(N)CC5)n4)c3c2)c1F [Example 4, 1-(6-(5-(2-fluoro-3-methoxyphenyl)-1H-indazol-3-yl)pyrazin-2-yl)piperidin-4-amine]
4 | 0.004 | 0.025 | 0.003 | 0.748 | > 31.6 | – | – | NC1CCN(c2cncc(-c3n[nH]c4ccc(-c5cccc(F)c5)cc34)n2)CC1 [Example 7, 1-(6-(5-(3-Fluorophenyl)-1H-indazol-3-yl)pyrazin-2-yl)piperidin-4-amine]
5 | 0.012 | 0.041 | 0.006 | 2.44 | > 31.6 | – | – | NC1CCN(c2cncc(-c3n[nH]c4ccc(N5CCCC5=O)cc34)n2)CC1 [Example 8, 1-(3-(6-(4-Aminopiperidin-1-yl)pyrazin-2-yl)-1H-indazol-5-yl)pyrrolidin-2-one]
6 | 0.004 | 0.096 | 0.001 | 0.437 | > 31.6 | – | – | COc1cc(-c2ccc3[nH]nc(-c4cncc(N5CCC(N)CC5)n4)c3c2)nc(OC)n1 [Example 9, 1-(6-(5-(2,6-dimethoxypyrimidin-4-yl)-1H-indazol-3-yl)pyrazin-2-yl)piperidin-4-amine]
7 | 0.003 | 0.098 | 0.005 | 1.17 | > 31.6 | – | – | NC1CCCN(c2cncc(-c3c[nH]c4ccc(-c5c(F)cccc5F)cc34)n2)C1 (stereo not drawn) [Example 21, 1-(6-(5-(2,6-difluorophenyl)-1H-indol-3-yl)pyrazin-2-yl)piperidin-3-amine]
8 | 0.002 | 0.018 | 0.005 | 0.439 | 7.11 | – | – | NC1CCN(c2cncc(-c3c[nH]c4ccc(-c5c(F)cccc5F)cc34)n2)CC1 [Example 22, 1-(6-(5-(2,6-difluorophenyl)-1H-indol-3-yl)pyrazin-2-yl)piperidin-4-amine]
9 | 0.002 | 0.009 | 0.004 | 0.228 | 5.04 | – | – | Fc1cccc(F)c1-c1ccc2[nH]cc(-c3cncc(O[C@@H]4CCCNC4)n3)c2c1 [Example 23, (R)-5-(2,6-difluorophenyl)-3-(6-(piperidin-3-yloxy)pyrazin-2-yl)-1H-indole]
10 | 0.018 | 0.087 | 0.023 | – | – | 0.497 | > 31.6 | Fc1cccc(F)c1-c1ccc2[nH]cc(-c3nccc(N[C@@H]4CCCNC4)n3)c2c1 [Example 24, (R)-2-(5-(2,6-difluorophenyl)-1H-indol-3-yl)-N-(piperidin-3-yl)pyrimidin-4-amine]
11 | 0.004 | 0.198 | 0.015 | – | – | 0.405 | 24.7 | CC(C)Oc1cncc(-c2ccc3[nH]cc(-c4cncc(N[C@@H]5CCCNC5)n4)c3c2)n1 [Example 25, (R)-6-(5-(6-isopropoxypyrazin-2-yl)-1H-indol-3-yl)-N-(piperidin-3-yl)pyrazin-2-amine]
12 | 0.004 | 0.023 | 0.006 | 0.514 | 3.69 | – | – | Fc1cccc(Cl)c1-c1ccc2[nH]cc(-c3cncc(O[C@@H]4CCCNC4)n3)c2c1 [Example 26, (R)-5-(2-chloro-6-fluorophenyl)-3-(6-(piperidin-3-yloxy)pyrazin-2-yl)-1H-indole bis(2,2,2-trifluoroacetate)]
13 | 0.01 | 0.048 | 0.009 | 0.78 | 27.2 | – | – | NC1CCN(c2cncc(-c3c[nH]c4ccc(-c5c(F)cccc5Cl)cc34)n2)CC1 [Example 27, 1-(6-(5-(2-chloro-6-fluorophenyl)-1H-indol-3-yl)pyrazin-2-yl)piperidin-4-amine bis(2,2,2-trifluoroacetate)]
14 | 0.001 | 0.072 | 0.002 | – | > 31.6 | – | – | NC1CCN(c2cncc(-c3n[nH]c4ccc(-c5ccnc(N6CCOCC6)n5)cc34)n2)CC1 [Example 98, 1-(6-(5-(2-(4-morpholinyl)-4-pyrimidinyl)-1H-indazol-3-yl)-2-pyrazinyl)-4-piperidinamine]
15 | – | 0.024 | 0.001 | 0.041 | 5.75 | – | – | c1cc2[nH]nc(-c3cncc(O[C@@H]4CCCNC4)n3)c2cc1-c1cncc(C2CC2)n1 [Example 118, 5-(6-cyclopropyl-2-pyrazinyl)-3-(6-((3R)-3-piperidinyloxy)-2-pyrazinyl)-1H-indazole]
16 | 0.001 | 0.01 | 0.006 | – | 3.52 | – | – | CN1CCOc2cc(-c3ccc4[nH]nc(-c5cncc(O[C@@H]6CCCNC6)n5)c4c3)ccc21 [Example 123, 4-methyl-7-(3-(6-((3R)-3-piperidinyloxy)-2-pyrazinyl)-1H-indazol-5-yl)-3,4-dihydro-2H-1,4-benzoxazine]
17 | 0.002 | 0.019 | 0.006 | – | 7.78 | – | – | c1cc2c(cc1-c1ccc3[nH]nc(-c4cncc(O[C@@H]5CCCNC5)n4)c3c1)OCCO2 [Example 140, 5-(2,3-dihydro-1,4-benzodioxin-6-yl)-3-(6-((3R)-3-piperidinyloxy)-2-pyrazinyl)-1H-indazole]
18 | 0.069 | 1.64 | 0.092 | 2.41 | – | – | – | Fc1cccc(F)c1-c1ccc2[nH]nc(-c3cncc(N4CCOCC4)n3)c2c1 [Example 169, 5-(2,6-difluorophenyl)-3-(6-(4-morpholinyl)-2-pyrazinyl)-1H-indazole]
19 | 0.004 | 0.019 | 0.006 | 0.146 | – | – | – | Fc1cccc(F)c1-c1ccc2[nH]nc(-c3cncc(O[C@H]4CNC[C@@H](F)C4)n3)c2c1 [Example 196, 5-(2,6-difluorophenyl)-3-(6-(((3R,5S)-5-fluoro-3-piperidinyl)oxy)-2-pyrazinyl)-1H-indazole]
20 | 0.021 | 0.414 | 0.051 | 8.85 | – | – | – | Fc1cccc(F)c1-c1ccc2[nH]cc(-c3cncc(NC4CCCCC4)n3)c2c1 [Example 202, N-cyclohexyl-6-(5-(2,6-difluorophenyl)-1H-indol-3-yl)-2-pyrazinamine]
21 | 0.008 | 0.184 | 0.018 | 3.05 | – | – | – | N[C@@H]1CCCN(c2cncc(-c3c[nH]c4ccc(-c5c(F)cccc5F)cc34)n2)C1 [Example 203, (3R)-1-(6-(5-(2,6-difluorophenyl)-1H-indol-3-yl)-2-pyrazinyl)-3-piperidinamine]
22 | 0.08 | 0.987 | 0.098 | – | – | 2.23 | – | O=C1CN(c2cncc(-c3c[nH]c4ccc(-c5c(F)cccc5F)cc34)n2)CCN1 [Example 204, 4-(6-(5-(2,6-difluorophenyl)-1H-indol-3-yl)-2-pyrazinyl)-2-piperazinone]
23 | 0.047 | 0.065 | 0.028 | – | – | – | > 15.8 | NC1CCN(c2cncc(-c3c[nH]c4ccc([N+](=O)[O-])cc34)n2)CC1 [Example 232, 1-(6-(5-nitro-1H-indol-3-yl)pyrazin-2-yl)piperidin-4-amine]
24 | 0.005 | 0.044 | 0.007 | – | – | – | 5.82 | COC(=O)c1ccc2[nH]cc(-c3cncc(N4CCC(N)CC4)n3)c2c1 [Example 236, methyl 3-(6-(4-aminopiperidin-1-yl)pyrazin-2-yl)-1H-indole-5-carboxylate]

Row | SMILES | IC50 [1] [µM] | IC50 [2] [µM] | IC50 [3] [µM] | IC50 [4, 6] [µM] | IC50 [5, 7] [µM] | IC50 [4] [µM] | IC50 [5] [µM]
25 | CN(c1cncc(-c2n[nH]c3ccc(-c4c(F)cccc4F)cc23)n1)C1CCNCC1 [Example 17, 6-(5-(2,6-Difluorophenyl)-1H-indazol-3-yl)-N-methyl-N-(piperidin-4-yl)pyrazin-2-amine] | 0.005 | 0.043 | 0.004 | 0.424 | 11 | – | –
